The values below are quoted from earlier work in publication PMC10694761 (Cell Reports Medicine, 2023).

For data set [1] the following is noted: micromolar concentrations.
The conditions of data set [2]: humans.
For data set [3] the following is noted: rats.

Turning to Liraglutide, the self-association state result in data set [1] was “heptameric structures”. Besides, the “t1/2, serum” value in data set [2] was roughly 13 h. In data set [3], the “half-life of absorption from the s.c. space (t1/2, s.c.)” value was roughly 9.6 min and the “half-life of elimination from the systemic circulation (t1/2, serum)” value is roughly 4.01 h.
